Values after ≈ are worked out from the molar mass of the structure shown. Like-named read-outs stand apart in the source and are kept apart here.
Key:
[1] = test system: rBCG:pMH30-lux; parameters: species or system BCG; BALB/C mice; settings: mouse, in vivo
[2] = test system: Mycobacterium bovis BCG containing pMV361-lux (BCG:361-lux); experiment: microbe, parasite or virus in culture; format: cell-based; settings: Mycobacterium tuberculosis variant bovis BCG, 120 h, read-out: MIC BACTEC
[3] = test system: Mycobacterium bovis BCG containing pMV361-lux (BCG:361-lux); experiment: microbe, parasite or virus in culture; format: cell-based; settings: for MBC: Mycobacterium tuberculosis variant bovis BCG, BCG
[4] = test system: Mycobacterium bovis BCG containing pMV361-lux (BCG:361-lux); experiment: microbe, parasite or virus in culture; format: cell-based; settings: for MIC: Mycobacterium tuberculosis variant bovis BCG, BCG
[5] = test system: rBCG:pMH30-lux; parameters: species or system BCG; BALB/C mice; settings: mouse, in vivo; remark: listed apart in the source

Row | SMILES | rBCG-lux luminescence in spleens [1] | MIC [2] [µg/mL] | MBC ([3]; 24 h) [µg/mL] | MBC ([3]; 48 h) [µg/mL] | MBC ([3]; 72 h) [µg/mL] | MBC ([3]; 96 h) [µg/mL] | MBC ([3]; 120 h) [µg/mL] | similarity in BACTEC and BCG:pMV361-lux assays (susceptibility) [4] | MIC ([4]; 24 h) [µg/mL] | MIC ([4]; 48 h) [µg/mL] | MIC ([4]; 72 h) [µg/mL] | MIC ([4]; 96 h) [µg/mL] | MIC ([4]; 120 h) [µg/mL] | MBC value in words [3] | lux activity in spleens vs untreated control mice [1] | lux activity in spleens [1] | reduced luminescence in spleen vs untreated control [5] [%] | total reduction in luminescence in spleen [5] [%]
1 | CO[C@H]1/C=C/O[C@@]2(C)Oc3c(C)c(O)c4c(O)c(c(/C=N/N5CCN(C)CC5)c(O)c4c3C2=O)NC(=O)/C(C)=C\C=C\[C@H](C)[C@H](O)[C@@H](C)[C@@H](O)[C@@H](C)[C@H](OC(C)=O)[C@@H]1C [Rifampin, rifampin] | reduced rBCG-lux luminescence | 0.03 (≈ 0.0365 µM) | > 0.25 | > 0.25 | > 0.25 | 0.13 (≈ 0.158 µM) | 0.13 (≈ 0.158 µM) | comparable | > 0.25 | > 0.25 | > 0.25 | 0.06 (≈ 0.0729 µM) | 0.06 (≈ 0.0729 µM) | – | – | – | – | –
2 | O=C(O)c1cn(C2CC2)c2cc(N3CCNCC3)c(F)cc2c1=O [Ciprofloxacin, ciprofloxacin] | – | 0.25 (≈ 0.754 µM) | > 2 | > 2 | – | 0.5 (≈ 1.51 µM) | 0.5 (≈ 1.51 µM) | comparable | > 2 | > 2 | 0.5 (≈ 1.51 µM) | 0.5 (≈ 1.51 µM) | 0.5 (≈ 1.51 µM) | – | – | – | – | –
3 | CC[C@H]1OC(=O)[C@H](C)[C@@H](O[C@H]2C[C@@](C)(OC)[C@@H](O)[C@H](C)O2)[C@H](C)[C@@H](O[C@@H]2O[C@H](C)C[C@H](N(C)C)[C@H]2O)[C@](C)(OC)C[C@@H](C)C(=O)[C@H](C)[C@@H](O)[C@]1(C)O [Clarithromycin, clarithromycin] | – | 0.25 (≈ 0.334 µM) | > 0.5 | > 0.5 | > 0.5 | > 0.5 | > 0.5 | comparable | > 0.5 | > 0.5 | 0.5 (≈ 0.668 µM) | 0.25 (≈ 0.334 µM) | 0.25 (≈ 0.334 µM) | above the highest concentration tested | – | – | – | –
4 | CC1COc2c(N3CCN(C)CC3)c(F)cc3c(=O)c(C(=O)O)cn1c23 (centres unmarked) [OFX, ofloxacin] | – | – | – | – | – | – | – | – | – | – | – | – | – | – | substantially reduced lux activity | – | – | –
5 | NNC(=O)c1ccncc1 [Isoniazid, isoniazid] | – | 0.06 (≈ 0.438 µM) | > 0.5 | 0.13 (≈ 0.948 µM) | 0.13 (≈ 0.948 µM) | 0.13 (≈ 0.948 µM) | 0.13 (≈ 0.948 µM) | – | > 0.5 | > 0.5 | > 0.5 | 0.06 (≈ 0.438 µM) | 0.06 (≈ 0.438 µM) | – | – | reduced lux activity | 50 | 90
6 | CC[C@@H](CO)NCCN[C@@H](CC)CO [Ethambutol, ethambutol] | – | 2 (≈ 9.79 µM) | > 8 | 8 (≈ 39.2 µM) | 4 to 8 (≈ 19.6 to 39.2 µM) | 4 (≈ 19.6 µM) | 4 (≈ 19.6 µM) | comparable | > 8 | > 8 | > 8 | 4 (≈ 19.6 µM) | 4 (≈ 19.6 µM) | – | – | reduced lux activity | 30 | 75
7 | NCC[C@H](O)C(=O)N[C@@H]1C[C@H](N)[C@@H](O[C@H]2O[C@H](CN)[C@@H](O)[C@H](O)[C@H]2O)[C@H](O)[C@H]1O[C@H]1O[C@H](CO)[C@@H](O)[C@H](N)[C@H]1O [Amikacin, amikacin] | – | 0.13 (≈ 0.222 µM) | 2 (≈ 3.42 µM) | 0.5 (≈ 0.854 µM) | 0.5 (≈ 0.854 µM) | 0.25 (≈ 0.427 µM) | 0.25 (≈ 0.427 µM) | comparable | > 2 | > 2 | 0.5 (≈ 0.854 µM) | 0.25 (≈ 0.427 µM) | 0.25 (≈ 0.427 µM) | – | substantially reduced lux activity | – | – | –
8 | [H]/N=C(/N)N[C@H]1[C@H](O)[C@@H](O)[C@H](O[C@@H]2O[C@@H](C)[C@](O)(C=O)[C@H]2O[C@@H]2O[C@@H](CO)[C@H](O)[C@@H](O)[C@@H]2NC)[C@@H](N/C(N)=N\[H])[C@@H]1O [Streptomycin, streptomycin] | – | 0.25 (≈ 0.43 µM) | > 2 | 0.5 (≈ 0.86 µM) | 0.5 (≈ 0.86 µM) | 0.25 (≈ 0.43 µM) | 0.25 (≈ 0.43 µM) | comparable | > 2 | 1 (≈ 1.72 µM) | 0.5 (≈ 0.86 µM) | 0.25 (≈ 0.43 µM) | 0.25 (≈ 0.43 µM) | – | – | – | – | –

Source: patent US5679515A, “Mycobacterial reporter strains and uses thereof” (PathoGenesis Corporation, priority 1994, dated 1997)
